The values that follow are results of earlier work, collected in US20070218119A1, “STEROL ENRICHED MIXED LAMMELARITY AMPHOTERICIN INTERCALATING LIPOSOMES IN SALINE AND THE PROCESS FOR THEIR PREPARATION” (priority 2004, published 2007).

For this series the following is noted: conventional Amphotericin B mixed with 0.9% Sodium Chloride (Martindale).

For the compound `C[C@@H]1[C@H](O)[C@@H](C)/C=C/C=C/C=C/C=C/C=C/C=C/C=C/[C@H](O[C@@H]2O[C@H](C)[C@@H](O)[C@H](N)[C@@H]2O)C[C@@H]2O[C@](O)(C[C@@H](O)C[C@@H](O)[C@H](O)CC[C@@H](O)C[C@@H](O)CC(=O)O[C@H]1C)C[C@H](O)[C@H]2C(=O)O` [conventional Amphotericin B, Amphotericin B], the “precipitation in 0.9% Sodium Chloride” value was “precipitation of Amphotericin B”.
